The text below walks through data of US8987314B2, “Amide, urea or sulfone amide linked benzothiazole inhibitors of endothelial lipase” (Bristol-Myers Squibb Company, priority 2012, dated 2015).

In one experiment the target is Endothelial lipase (EL) (Homo sapiens (Human), UniProt Q9Y5X9). Description: EL assay: endothelial lipase activity with fluorescent substrate A10070 in DMPG vesicles. It is filed as biochemical. An outline of the steps: (§1)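 EL from conditioned medium of HT-1080 cells engineered to overexpress endogenous EL; HL partially purified from conditioned medium of HL-overexpressing COS cells. Enzyme preincubated with compound 30 min at 37° C in 50 mM HEPES pH 8.0, 50 mM NaCl, 1 mM CaCl2; DMPG vesicles carrying FRET substrate (0.11 mole fraction) then added.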

The next experiment addresses hepatic lipase (HL) (Homo sapiens (Human), UniProt P11150). Description: HL assay: hepatic lipase activity with fluorescent substrate A10070 in DMPG vesicles. It is filed as biochemical. Summed up:
as §1

Chain of Endothelial lipase (EL) (Q9Y5X9 21-500): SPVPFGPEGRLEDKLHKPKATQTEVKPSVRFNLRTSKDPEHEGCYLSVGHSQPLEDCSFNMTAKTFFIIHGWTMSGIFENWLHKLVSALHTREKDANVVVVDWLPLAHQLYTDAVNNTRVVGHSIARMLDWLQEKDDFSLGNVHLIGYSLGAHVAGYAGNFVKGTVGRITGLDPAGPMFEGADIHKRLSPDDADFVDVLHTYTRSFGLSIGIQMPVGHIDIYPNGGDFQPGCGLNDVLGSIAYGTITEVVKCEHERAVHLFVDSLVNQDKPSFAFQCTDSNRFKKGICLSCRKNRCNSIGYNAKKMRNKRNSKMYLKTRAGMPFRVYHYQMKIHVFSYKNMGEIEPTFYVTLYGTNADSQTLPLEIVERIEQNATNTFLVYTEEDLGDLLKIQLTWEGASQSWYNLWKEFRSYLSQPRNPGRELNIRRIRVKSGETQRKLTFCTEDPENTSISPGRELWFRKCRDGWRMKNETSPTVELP
Chain of hepatic lipase (HL) (P11150 23-499, species assumed): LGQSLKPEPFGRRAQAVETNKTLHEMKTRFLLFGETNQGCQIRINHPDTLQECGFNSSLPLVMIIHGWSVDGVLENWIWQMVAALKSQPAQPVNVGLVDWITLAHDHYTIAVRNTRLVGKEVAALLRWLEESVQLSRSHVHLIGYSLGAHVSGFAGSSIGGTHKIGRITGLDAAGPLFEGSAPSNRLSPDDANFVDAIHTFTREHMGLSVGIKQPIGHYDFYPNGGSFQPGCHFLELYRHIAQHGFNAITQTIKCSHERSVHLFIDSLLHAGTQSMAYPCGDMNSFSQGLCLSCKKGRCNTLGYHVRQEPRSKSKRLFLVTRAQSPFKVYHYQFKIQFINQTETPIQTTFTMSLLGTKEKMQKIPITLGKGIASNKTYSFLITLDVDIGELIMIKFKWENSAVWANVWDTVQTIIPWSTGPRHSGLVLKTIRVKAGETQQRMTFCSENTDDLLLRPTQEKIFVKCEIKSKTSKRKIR

A word on the IC50: it is the concentration needed to halve the response being measured. Higher therefore signals weaker potency. Take `CC(C)(C)OC(=O)N1CCC(n2cc(-c3ccc4nc(C(C(=O)NCCS(N)(=O)=O)S(C)(=O)=O)sc4c3)cn2)CC1` (centres unmarked) [Example B76, tert-butyl 4-(4-(2-(1-(methylsulfonyl)-2-oxo-2-((2-sulfamoyl-ethyl)amino)ethyl)-1,3-benzothiazol-6-yl)-1H-pyrazol-1-yl)-1-piperidinecarboxylate]: the results for the IC50 against Endothelial lipase (EL) and on hepatic lipase (HL) were under 0.01 µM and 0.021 µM, respectively.

With `NS(=O)(=O)CCNC(=O)C(c1nc2ccc(-c3cnn(CCN4CCOCC4)c3)cc2s1)S(=O)(=O)CC1CC1` (centres unmarked) [Example B77, 2-[(cyclopropylmethyl)sul-fonyl]-2-(6-{1-[2-(4-morpholinyl)ethyl]-1H-pyrazol-4-yl}-1,3-benzothiazol-2-yl)-N-(2-sulfamoylethyl)acetamide], the IC50 against Endothelial lipase (EL) is under 0.01 µM; against hepatic lipase (HL) it was 2.26 µM.

Take `CS(=O)(=O)C(C(=O)NCCS(N)(=O)=O)c1nc2ccc(-c3c[nH]nc3C(F)(F)F)cc2s1` (centres unmarked) [Example B78, 2-(methylsulfonyl)-N-(2-sulfamoylethyl)-2-(6-(3-(trifluoromethyl)-1H-pyrazol-4-yl)-1,3-benzothiazol-2-yl)a-cetamide]: the IC50 against Endothelial lipase (EL) is under 0.01 µM; against hepatic lipase (HL) it was 0.068 µM.

For the compound `COc1cccc(-c2ccc3nc(C(C(=O)NCCS(N)(=O)=O)S(C)(=O)=O)sc3c2)c1` (centres unmarked) [Example B79, 2-(6-(3-methoxyphenyl)-1,3-benzothiazol-2-yl)-2-(methylsulfonyl)-N-(2-sulfamoylethyl)acetamide], the IC50 on Endothelial lipase (EL) and at hepatic lipase (HL) was under 0.01 µM throughout.

On to `Cc1nnc(CNC(=O)C(c2nc3cc(C)c(-c4ccc(F)nc4)cc3s2)S(C)(=O)=O)o1` (centres unmarked) [Example B80, 2-[6-(6-fluoro-3-pyridinyl)-5-methyl-1,3-benzothiazol-2-yl]-N-[(5-methyl-1,3,4-oxadiazol-2-yl)methyl]-2-(methylsulfonyl)acetamide], for which the IC50 against Endothelial lipase (EL) and against hepatic lipase (HL) was under 0.01 µM in each case.

Regarding `Cc1nnc(CNC(=O)C(c2nc3cc(C)c(-c4ccc(C(=O)N5CCOCC5)cc4)cc3s2)S(C)(=O)=O)o1` (centres unmarked) [Example B81, 2-{5-methyl-6-[4-(4-morpholinylcarbonyl)phen-yl]-1,3-benzothiazol-2-yl}-N-[(5-methyl-1,3,4-oxadiazol-2-yl)methyl]-2-(methylsulfonyl)acetamide], the IC50 on Endothelial lipase (EL) came to 0.014 µM; on hepatic lipase (HL), 0.196 µM.

Consider `Cc1nnc(CNC(=O)C(c2nc3cc(C)c(-c4ccccc4)cc3s2)S(C)(=O)=O)o1` (centres unmarked) [Example B82, N-((5-methyl-1,3,4-oxadiazol-2-yl)methyl)-2-(5-methyl-6-phenyl-1,3-benzothiazol-2-yl)-2-(methylsulfonyl)acetamide], for which the IC50 stood at 0.085 µM at Endothelial lipase (EL) and 0.177 µM against hepatic lipase (HL).

Turning to `Cc1nnc(CNC(=O)C(c2nc3cc(C)c(-c4cnn(CCN5CCOCC5)c4)cc3s2)S(C)(=O)=O)o1` (centres unmarked) [Example B83, 2-(5-methyl-6-(1-(2-(4-morpholinyl)ethyl)-1H-pyrazol-4-yl)-1,3-benzothiazol-2-yl)-N-((5-methyl-1,3,4-oxadiazol-2-yl)methyl)-2-(methylsulfonyl)acetamide], the IC50 on Endothelial lipase (EL) came out at 0.077 µM; at hepatic lipase (HL), 0.229 µM.

Turning to `Cc1nnc(CNC(=O)C(c2nc3cc(C)c(-c4ccc(N5CCNCC5)cc4)cc3s2)S(C)(=O)=O)o1` (centres unmarked) [Example B84, N-((5-methyl-1,3,4-oxadiazol-2-yl)methyl)-2-(5-methyl-6-(4-(piperazin-1-yl)phenyl)-1,3-benzothiazol-2-yl)-2-(methylsulfonyl)acetamide], the values for the IC50 against Endothelial lipase (EL) and at hepatic lipase (HL) were 0.034 µM and 0.35 µM, respectively.

Regarding `Cc1nnc(CNC(=O)C(c2nc3cc(C)c(-c4ccc5c(c4)CCC(=O)N5)cc3s2)S(C)(=O)=O)o1` (centres unmarked) [Example B85, N-((5-methyl-1,3,4-oxadiazol-2-yl)methyl)-2-(5-methyl-6-(2-oxo-1,2,3,4-tetrahydro-6-quinolinyl)-1,3-benzothiazol-2-yl)-2-(methylsulfonyl)acetamide], the IC50 worked out at 0.011 µM on Endothelial lipase (EL) and 0.124 µM on hepatic lipase (HL).

Consider `CS(=O)(=O)C(C(=O)NCCS(N)(=O)=O)c1nc2cc(-c3ccc(C(=O)N4CCOCC4)cc3)ccc2s1` (centres unmarked) [Example B86, 2-(methylsulfonyl)-2-(5-(4-(4-morpholinylcarbonyl)phen-yl)-1,3-benzothiazol-2-yl)-N-(2-sulfamoylethyl)a-cetamide], for which the IC50 against Endothelial lipase (EL) was under 0.01 µM; at hepatic lipase (HL), 0.494 µM.

With `COc1ccc(-c2ccc3sc(C(C(=O)NCCS(N)(=O)=O)S(C)(=O)=O)nc3c2)cn1` (centres unmarked) [Example B87, 2-(5-(6-methoxy-3-pyridinyl)-1,3-benzothiazol-2-yl)-2-(methylsulfonyl)-N-(2-sulfamoylethyl)acetamide], the IC50 is 0.0005 µM against Endothelial lipase (EL) and 0.0026 µM on hepatic lipase (HL).

Consider `COc1cc(-c2ccc3sc(C(C(=O)NCCS(N)(=O)=O)S(C)(=O)=O)nc3c2)ccn1` (centres unmarked) [Example B88, 2-(5-(2-methoxy-4-pyridinyl)-1,3-benzothiazol-2-yl)-2-(methylsulfonyl)-N-(2-sulfamoylethyl)acetamide], for which the IC50 at Endothelial lipase (EL) amounted to 0.0005 µM; against hepatic lipase (HL), 0.0022 µM.

As to `CS(=O)(=O)C(C(=O)NCCS(N)(=O)=O)c1nc2cc(-c3cncnc3)ccc2s1` (centres unmarked) [Example B89, 2-(methylsulfonyl)-2-(5-(5-pyrimidinyl)-1,3-benzothiazol-2-yl)-N-(2-sulfamoylethyl)acetamide], the figures for the IC50 against Endothelial lipase (EL) and on hepatic lipase (HL) were 0.0044 µM and 0.07 µM, respectively.

Take `COCCn1cc(-c2ccc3sc(C(C(=O)NCCS(N)(=O)=O)S(C)(=O)=O)nc3c2)cn1` (centres unmarked) [Example B90, 2-(5-(1-(2-methoxyethyl)-1H-pyrazol-4-yl)-1,3-benzothiazol-2-yl)-2-(methylsulfonyl)-N-(2-sulfamoylethyl)acetamide]: the IC50 against Endothelial lipase (EL) is under 0.01 µM; against hepatic lipase (HL), 0.1 µM.

For `CS(=O)(=O)C(C(=O)NCCS(N)(=O)=O)c1nc2cc(-c3cnn(CCN4CCOCC4)c3)ccc2s1` (centres unmarked) [Example B91, 2-(methylsulfonyl)-2-(5-(1-(2-(4-morpholinyl)ethyl)-1H-pyrazol-4-yl)-1,3-benzothiazol-2-yl)-N-(2-sulfamoylethyl)acetamide], the half-maximal inhibitory concentration (IC50) is under 0.01 µM at Endothelial lipase (EL) and 1.8 µM against hepatic lipase (HL).

Take `CS(=O)(=O)C(C(=O)NCCS(N)(=O)=O)c1nc2cc(-c3ccccc3)ccc2s1` (centres unmarked) [Example B92, 2-(methylsulfonyl)-2-(5-phenyl-1,3-benzothiazol-2-yl)-N-(2-sulfamoylethyl)a-cetamide]: the IC50 against Endothelial lipase (EL) and at hepatic lipase (HL) was under 0.01 µM throughout.

`COCCNC(=O)c1ccc(-c2ccc3sc(C(C(=O)NCCS(N)(=O)=O)S(C)(=O)=O)nc3c2)cc1` (centres unmarked) [Example B93, N-(2-methoxyethyl)-4-(2-(1-(methylsulfonyl)-2-oxo-2-((2-sulfamoylethyl)a-mino)ethyl)-1,3-benzothiazol-5-yl)ben-zamide]: the IC50 is 0.0005 µM at Endothelial lipase (EL) and 0.0071 µM on hepatic lipase (HL).

Regarding `CS(=O)(=O)C(C(=O)NCCS(N)(=O)=O)c1nc2cc(-c3ccc(C(=O)NCCO)cc3)ccc2s1` (centres unmarked) [Example B94, N-(2-hydroxyethyl)-4-(2-(1-(methylsulfonyl)-2-oxo-2-((2-sulfamoylethyl)a-mino)ethyl)-1,3-benzothiazol-5-yl)ben-zamide], the half-inhibitory concentration (IC50) at Endothelial lipase (EL) was under 0.01 µM; against hepatic lipase (HL) it was 0.123 µM.
